Source: US7304079B2, “Substituted indolealkanoic acids” (The Institute for Pharmaceutical Discovery, LLC, priority 1998, dated 2007)

Biological target: T1, human aldehyde reductase (hALR1) (Homo sapiens, UniProt P14550)
T1 sequence (P14550 1-325): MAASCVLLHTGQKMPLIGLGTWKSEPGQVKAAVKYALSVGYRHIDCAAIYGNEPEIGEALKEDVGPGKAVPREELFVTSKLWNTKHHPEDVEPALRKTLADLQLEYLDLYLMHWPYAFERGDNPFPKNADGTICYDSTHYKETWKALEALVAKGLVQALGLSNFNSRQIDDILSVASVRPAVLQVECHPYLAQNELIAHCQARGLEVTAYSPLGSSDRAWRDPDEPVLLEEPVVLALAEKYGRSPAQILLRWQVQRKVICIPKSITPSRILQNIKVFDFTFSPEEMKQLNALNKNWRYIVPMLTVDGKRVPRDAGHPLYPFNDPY
Assay: human aldehyde reductase (hALR1) inhibition
Format: biochemical
Experimental: In a second assay, a number of the same compounds were tested for their ability to inhibit aldehyde reductase (hALR1), a structurally related enzyme.

IC50: > 0.1 µM
Structure (SMILES): O=C(O)Cn1cc(Cc2nc3c(F)c(F)cc(F)c3s2)c2ccc(N3CCOCC3)cc21 [Example 18, 6-morpholino-3-(4,5,7-trifluorobenzothiazol-2-yl)methyl-indole-N-acetic acid]
